Source: patent publication US5453444A, “Method to mitigate or eliminate weight loss” (Otsuka Pharmaceutical Co., Ltd., priority 1994, dated 1995)
Values joined by “and” are separate entries in the source; they are usually repeats but may differ in a detail not shown here. Equal entries are not always repeated. “Also recorded” adds a separate entry of the source. Structures can show the parent of a compound that is named as a salt.

Experiments:
[1] = tested on: cachexia-inducing action of CF; settings: Silva et al., Infection and Immunity 1988; cited from earlier work
C-26 cachexia [2] = experiment: Time course of C-26 mediated weight loss and tumor volume (Example 2); format: in vivo, mice; settings: 100 mg/kg intraperitoneally days 7 and 12
Procedure: In subsequent experiments, eight mice obtained from the same source as above were injected with 0.5 ml PBS intraperitoneally and eight other mice from the same source as above were injected with 100 mg/kg body weight of suramin intraperitoneally. The injections were given on days 7 and 12. The weight of the two groups was measured several times a week.

IL-6 receptor = experiment: Radioreceptor assay: binding of 125I-IL-6 to U266 cells; parameters: species or system human; settings: for binding of radioactive IL-6 to U266 cells: 90 minutes at 4° C., increasing amounts of compound
Procedure: This experiment analyzed whether suramin inhibits IL-6 bioactivity by interfering with binding to the IL-6 receptor. Into eighteen test tubes was placed U266 indicator cells (obtained from ATCC), a binding buffer, made up of RPMI medium, 0.1 mg BSA and […] Hepes, and 100,000 cpm (0.8 ng) of ^125 I-IL-6. The tubes were divided into six groups of three tubes each and received suramin as follows: group 1 had 300 uM suramin; group 2 had 100 uM suramin; group 3 had 30 uM suramin; group 4 had 10 uM suramin; and group 5 had no suramin, but only medium (control for maximal binding). In addition, group 6 received excess unlabeled IL-6 without suramin for use in determining the background of binding in this assay.
After 90 minutes of incubation at 4° C. and the centrifugation of cells on oil (a standard radioreceptor assay) Strassmann, J. Immunol., 147:1279-1289 (1991), the amount of radioactivity bound to the cells was determined. […] Also, the addition of increasing amounts of suramin prevented the binding of radioactive IL-6 to U266 human myeloma indicator cells in vitro as reflected in the results set forth in FIG. 6.
The same procedure set forth in Example 6 was followed, except that Pentosan polysulfate was used instead of Suramin.

125I-IL-6 = 125I-IL-6 sequestration in vivo (liver, kidney, spleen radioactivity); parameters: species or system mice; settings: for Kidney radioactivity / Liver radioactivity / Spleen radioactivity: 5 mg/mouse, mean ± 0.5 range of 2 mice
Procedure: The ability to prevent binding of IL-6 in vivo was analyzed as follows. Eight mice received 5.0 mg/mouse of suramin intravenously and eight other mice received 0.2 ml PBS/mouse intravenously 0.5 hour. Thereafter, all sixteen of the mice received an injection of 300,000 cpm (2.4 ng) of ^125 I-IL-6. Four mice from each group were sacrificed 30 minutes after receiving the ^125 I-IL-6 and the remaining four mice from each group were sacrificed 60 minutes after receiving the ^125 I-IL-6. The liver, kidney, and spleen were removed and measured for radioactivity (cpm).

C-26 cachexia [3] = experiment: Dose dependence of C-26 cachexia inhibition (Example 3); format: in vivo, mice; settings: increasing amounts intraperitoneally; day 17; FIG. 3
Procedure: Mice were obtained and injected with C-26 cells as set forth above for Example 1, and then were put into four groups of five mice each. The mice were injected intraperitoneally with increasing amounts of suramin as indicated in FIG. 3 except for the control mice. On day 17, the total weight of each group was compared to a control group of five mice which had been injected with 0.5 ml PBS intraperitoneally.

[4] = tested on: turpentine-induced wasting; experiment: Turpentine-induced wasting (Example 4); format: in vivo, mice; settings: 100 mg/kg intraperitoneally day -3, 0.1 ml turpentine i.m. day 0, FIG. 4
Procedure: (See Gershenwald et al., "Interleukin 1 receptor blockade attenuates the host inflammatory response" Proc. Natl. Acad. Sci., 87 4966-70, (July, 1990) for a description of the turpentine-induced wasting procedure). In this experiment, three days before day 0 (day -3), five male (CD)2F1 mice, obtained from Charles Rivers Laboratories, each received intraperitoneally 0.5 ml of PBS. Five other mice obtained from the same source each received intraperitoneally 100 mg/kg body weight suramin diluted with 0.5 ml of PBS.

[5] = tested on: C-26.IVX cells derived from the colon adenocarcinoma; experiment: Suramin blocks C-26 mediated cachexia (Example 1); format: in vivo, mice; settings: 200 mg/kg I.P. d7, 13
Procedure: Eleven male mice (CD)2F1 obtained from Charles Rivers Laboratories were weighed and then were inoculated with 0.5×10^6 C-26.IVX cells derived from the colon adenocarcinoma (by the procedure described in Strassmann et al., J. Clin. Invest., 89, pp. 1681-84 (May 1992) which is incorporated herein by reference). The day of inoculation was identified as day 0 (d0). On days 7 and 13, five of these mice each received intraperitoneally 0.5 ml of PBS (phosphate buffered saline) and the other six mice each received intraperitoneally 200 mg/kg body weight of suramin diluted in 0.5 ml PBS. On day 19, all the mice were sacrificed and the final total weight, the host weight, the tumor weight, epididymal fat, and dry weight were measured.

IL-6 = IL-6 dependent proliferation of B-9 cells (3H-thymidine incorporation); format: cell-based; settings: for cpm of 3H-thymidine incorporation, B-9 cells: Table 5; for proliferation of B-9 cells in response to IL-6: result in words; for cpm of 3H-thymidine, B-9 cells: Table 3
Procedure: A standard proliferation assay, Strassmann et al., J. Immunol., 147:1279-1285 (1991), was conducted using 96 well plates The medium used was RPMI with 10% fetal calf serum B-9 cells were added and were cultured for 3 days. The extent of proliferation of B-9 cells was determined by the incorporation of radioactive thymidine as described in Strassmann et al., J. Clin. Invest., 89, pp. 1681-84 (May 1992). […] (See Strassmann et al., J. Clin. Invest., 89, pp. 1681-84 (May 1992), incorporated herein by reference.)
The same procedures set forth in Example 5 was followed except that a different sulfate-containing compound, Pentosan polysulfate, was used.
The same procedure set forth in Example 5 was followed except in this example, Dextran sulfate and Dextran, were used instead of Suramin.

[6] = 5.0 mg/mouse intravenously 0.5 hour before 125I-IL-6

## C[C@@H]1C[C@H]2[C@@H]3CCC4=CC(=O)C=C[C@]4(C)[C@@]3(F)[C@@H](O)C[C@]2(C)[C@@]1(O)C(=O)CO [Dexamethasone]
[1]
  cachexia-inducing action of CF: partially inhibit the cachexia-inducing action of CF

## Cc1ccc(C(=O)Nc2ccc(S(=O)(=O)O)c3cc(S(=O)(=O)O)cc(S(=O)(=O)O)c23)cc1NC(=O)c1cccc(NC(=O)Nc2cccc(C(=O)Nc3cc(C(=O)Nc4ccc(S(=O)(=O)O)c5cc(S(=O)(=O)O)cc(S(=O)(=O)O)c45)ccc3C)c2)c1 [Suramin, 8-8'-[Carbonylbis[imino-3,1-phenylenecarbonylimino(4-methyl-3,1-phenylene)carbonylimino]]bis-1,3,5-naphthalenetrisulfonic acid hexasodium salt]
C-26 cachexia [2]; FIG. 1
  C-26 mediated weight loss over time: inhibited C-26 mediated weight loss in a significant time dependent manner; also recorded: time dependent inhibition of C-26 cachexia
C-26 cachexia [2]; FIG. 2
  tumor (C-26) growth in vivo (tumor volume): no significant effect on the tumor (C-26) growth in-vivo except on day 19; also recorded: lack of effect
IL-6 receptor
  binding of radioactive IL-6 to U266 cells: prevents binding of the IL-6 to the U266 cells in a dose dependent manner; also recorded: prevention of the binding of IL-6 to human myeloma cells
125I-IL-6; [6]
  less radioactivity measured in the liver versus PBS: approximately 50%
  radioactive IL-6 present in the kidney: increase of radioactive IL-6 present in the kidney
125I-IL-6; Expt. 1, 30 minutes
  Kidney radioactivity: 70151 ± 125 cpm
  Liver radioactivity: 8385 ± 1525 cpm/gm
  Spleen radioactivity: 1347 ± 295 cpm
125I-IL-6; Expt. 1, 60 minutes
  Kidney radioactivity: 36595 ± 1760 cpm
  Liver radioactivity: 4275 ± 91 cpm/gm
  Spleen radioactivity: 630 ± 6 cpm
125I-IL-6; Expt. 2, 30 minutes
  Kidney radioactivity: 57287 ± 2849 cpm
  Liver radioactivity: 9277 ± 235 cpm/gm
  Spleen radioactivity: 1306 ± 4 cpm
125I-IL-6; Expt. 2, 60 minutes
  Kidney radioactivity: 38254 ± 466 cpm
  Liver radioactivity: 5512 ± 379 cpm/gm
  Spleen radioactivity: 631 ± 25 cpm
C-26 cachexia [3]
  percentage of weight loss (wasting) versus dose: inhibited wasting in a dose dependent manner; also recorded: dose dependent inhibition of C-26 cachexia
[4]
  turpentine-induced weight loss: exhibited no such weight loss; also recorded: prevention of turpentine-induced wasting
[5]; d19, individual mouse
  % weight loss: 5.3% and 17.6% and 10.5% and 15.4% and 18.6% and 5.1%
  Dry wt: 7.8 g and 6.5 g and 6.6 g and 6.4 g
  Final total wt.: 25.9 g and 25.2 g and 26.2 g and 25.5 g and 25.4 g and 27.4 g
  Host's wt.: 25.0 g and 23.3 g and 24.2 g and 23.5 g and 23.1 g and 25.8 g
  IL-6: 292 U/ml and 360 U/ml and 310 U/ml and 535 U/ml and 477 U/ml and 328 U/ml
  Serum Glucose: 128 mg/dL and 114 mg/dL and 100 mg/dL and 110 mg/dL and 109 mg/dL and 116 mg/dL
  Tumor wt: 0.93 g and 1.98 g and 2.08 g and 1.96 g and 2.36 g and 1.64 g
[5]; d19, mean ±SD of six mice
  % weight loss: 12.0%
  Dry wt: 6.7 ± 0.5 g
  Host's wt.: 24.2 g
  IL-6: 384 U/ml
  Serum Glucose: 113 ± 9 mg/dL
  Tumor wt: 1.82 g
[5]; d19, mean ±SD of six mice, listed as suramin
  % weight loss: 12.0±6.0%
[5]; sacrificed d19, mean ±SD of six mice
  Final total wt.: 26.9 ± 0.8 g
IL-6; preincubated with IL-6, 3 days culture, FIG. 5
  bioactivity of IL-6 (proliferation of B-9 cells): inhibits the bioactivity of IL-6; also recorded: inhibition of bioactivity of IL-6

## Dextran
IL-6; compound 30 μM, IL-6 3 pg/ml
  cpm of 3H-thymidine incorporation, B-9 cells: 24007 cpm
IL-6; compound 30 μM, IL-6 10 pg/ml
  cpm of 3H-thymidine incorporation, B-9 cells: 143003 cpm
IL-6; compound 30 μM, IL-6 30 pg/ml
  cpm of 3H-thymidine incorporation, B-9 cells: 231856 cpm
IL-6; compound 100 μM, IL-6 3 pg/ml
  cpm of 3H-thymidine incorporation, B-9 cells: 29577 cpm
IL-6; compound 100 μM, IL-6 10 pg/ml
  cpm of 3H-thymidine incorporation, B-9 cells: 136191 cpm
IL-6; compound 100 μM, IL-6 30 pg/ml
  cpm of 3H-thymidine incorporation, B-9 cells: 230321 cpm
IL-6; compound 300 μM, IL-6 3 pg/ml
  cpm of 3H-thymidine incorporation, B-9 cells: 27015 cpm
IL-6; compound 300 μM, IL-6 10 pg/ml
  cpm of 3H-thymidine incorporation, B-9 cells: 140903 cpm
IL-6; compound 300 μM, IL-6 30 pg/ml
  cpm of 3H-thymidine incorporation, B-9 cells: 245701 cpm
IL-6
  proliferation of B-9 cells in response to IL-6: did not prevent the proliferation of B-9 cells in response to IL-6

## Dextran sulfate
IL-6; compound 30 μM, IL-6 3 pg/ml
  cpm of 3H-thymidine incorporation, B-9 cells: 7603 cpm
IL-6; compound 30 μM, IL-6 10 pg/ml
  cpm of 3H-thymidine incorporation, B-9 cells: 68066 cpm
IL-6; compound 30 μM, IL-6 30 pg/ml
  cpm of 3H-thymidine incorporation, B-9 cells: 204155 cpm
IL-6; compound 100 μM, IL-6 3 pg/ml
  cpm of 3H-thymidine incorporation, B-9 cells: 8075 cpm
IL-6; compound 100 μM, IL-6 10 pg/ml
  cpm of 3H-thymidine incorporation, B-9 cells: 31678 cpm
IL-6; compound 100 μM, IL-6 30 pg/ml
  cpm of 3H-thymidine incorporation, B-9 cells: 150233 cpm
IL-6; compound 300 μM, IL-6 3 pg/ml
  cpm of 3H-thymidine incorporation, B-9 cells: 2461 cpm
IL-6; compound 300 μM, IL-6 10 pg/ml
  cpm of 3H-thymidine incorporation, B-9 cells: 16573 cpm
IL-6; compound 300 μM, IL-6 30 pg/ml
  cpm of 3H-thymidine incorporation, B-9 cells: 112835 cpm
IL-6
  proliferation of B-9 cells in response to IL-6: prevented the proliferation of B-9 cells in response to IL-6

## Pentosan polysulfate
IL-6 receptor; 3 μM
  cpm 125I-IL-6 bound to U266 cells: 3000 cpm
IL-6 receptor; 30 μM
  cpm 125I-IL-6 bound to U266 cells: 2575 cpm
IL-6 receptor; 300 μM
  cpm 125I-IL-6 bound to U266 cells: 2003 cpm
IL-6 receptor
  binding of radioactive IL-6 to U266 cells: inhibited the binding of radioactive IL-6 to U266 human myeloma cells
IL-6; compound 300 μM, IL-6 added 1 pg/ml
  cpm of 3H-thymidine, B-9 cells: 1567 cpm
IL-6; compound 300 μM, IL-6 added 3 pg/ml
  cpm of 3H-thymidine, B-9 cells: 2648 cpm
IL-6; compound 300 μM, IL-6 added 10 pg/ml
  cpm of 3H-thymidine, B-9 cells: 11456 cpm
IL-6; compound 300 μM, IL-6 added 30 pg/ml
  cpm of 3H-thymidine, B-9 cells: 60287 cpm
IL-6; compound 1000 μM, IL-6 added 1 pg/ml
  cpm of 3H-thymidine, B-9 cells: 795 cpm
IL-6; compound 1000 μM, IL-6 added 3 pg/ml
  cpm of 3H-thymidine, B-9 cells: 1062 cpm
IL-6; compound 1000 μM, IL-6 added 10 pg/ml
  cpm of 3H-thymidine, B-9 cells: 3586 cpm
IL-6; compound 1000 μM, IL-6 added 30 pg/ml
  cpm of 3H-thymidine, B-9 cells: 26727 cpm
IL-6
  proliferation of B-9 cells in response to IL-6: prevented the proliferation of B-9 cells

## hIL-6: excess unlabeled IL-6 used for determining the background of binding in the radioreceptor assay
IL-6 receptor; 270 ng/ml unlabeled competitor (background of binding)
  cpm 125I-IL-6 bound to U266 cells: 1416 cpm
